Experimental data as given in patent US20250057740A1, “Stable Stannous Oral Care Product” (Colgate-Palmolive Company, priority 2018, published 2025).
Values belong to the molecule of their own block, whether it stands above or below them.

Assays:
[1] = Stability of stannous ions over 35 days at 60° C. (FIG. 3)
Procedure: Stability of stannous ions is assessed over a period of 35 days.

[2] = aqueous Sn (II) with the named additive, 35 days
Procedure: Stability of Sn (II) in aqueous solutions, and the ability of various additives to affect this stability, is assessed.

[3] = in water; cited from earlier work

oxidative stability of stannous ([1]; SnF2 in the presence of the named additive): no oxidative stability is observed
SMILES: O=P([O-])([O-])OP(=O)([O-])[O-].[Na+].[Na+].[Na+].[Na+] [TSPP, tetrasodium pyrophosphate]

SMILES: O.O.O.O.O=P([O-])([O-])[O-].O=P([O-])([O-])[O-].[Zn+2].[Zn+2].[Zn+2] [Zinc phosphate, zinc phosphate]
prevention of the stannous-to-stannic oxidation [2]: positive impact
Ksp [3]: ~10^−35

SMILES: O=P(O)(O)O [phosphoric acid]
stannous oxidized ([1]; stannous fluoride in the presence of the named additive): 8-9%

SMILES: [F][Sn][F] [stannous fluoride, reference compound]
stannous oxidized ([1]; stannous fluoride alone): ~80%
